Reference: patent US20080004290A1, “Anti-Cancer Agents” (THE UNIVERSITY OF QUEENSLAND, priority 2003, published 2008)
Like-named read-outs stand apart in the source and are kept apart here.

Columns and labels:
Format in all cases: cell-based, human
MM96L melanoma cells = experiment: Cell survival assay (clonogenic survival, SRB); settings: for IC50: MM96L; for SI (Selectivity Index = IC50 (NFF)/IC50 (MM96L)): NFF vs MM96L; for Selectivity Index MM96L: Table 13, S enantiomer, IC50(NFF)/IC50(cancer cell line)
In short: (§1)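 Cells (5×10^3/well, RPMI 1640 with 10% FCS) treated 24 h with compound at 0.01-10 μg/mL, then washed and grown 72 h drug-free at 37 °C, 5% CO2. Survival read by SRB staining after methylated-spirit fixation, absorbance 564 nm.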

[1] = system: CI-80-13S ovarian cancer cells; experiment: Cell survival assay (SRB); settings: for IC50: read-out: Cytoselectivities (nM) CI80-13S; for Selectivity Index CI80-13S: Table 13, S enantiomer, IC50(NFF)/IC50(cancer cell line)
Protocol: (§2) Cell Lines and Culture Medium. All cell lines used in this study have been described previously (Parsons et al., 1986; Todaro et al., 1980; Glenn et al., 2004). All cell lines were cultured in 10% heat-inactivated foetal calf serum (CSL, Australia) in RPMI 1640 medium supplemented with 100 U/mL penicillin, 100 μg/mL streptomycin, and 3 mM HEPES at 5% CO2, 99% humidity at 37° C. Primary human fibroblasts were obtained from neonatal foreskins and cultured in the above medium. Routine mycoplasma tests were performed using Hoechst stain^i and were always negative.
(§3) Cell Survival Assay. Cells were plated into 96-well microtitre plates at 5×10^3 cells/well, and allowed to adhere overnight. Test compounds were added to culture medium at the indicated concentrations, and plates incubated in the above conditions for 24 hours. Following this incubation period, compounds and media were removed, and replaced with fresh culture medium. Cells were then grown for a further 72 hours before assay using sulforhodamine B (SRB; Sigma, St. Louis, Mo.) as previously described. Briefly, the culture medium was removed from the 96-well microtitre plates and the plates washed twice with phosphate buffered saline (PBS), before the cells were fixed with methylated spirits for 15 minutes. The plates were then rinsed with tap water and the fixed cells stained with 50 μL/well of SRB solution (0.4% sulforhodamine B (w/v) in 1% (v/v) acetic acid) over a period of 1 hour. The SRB solution was then removed from the wells and the plates rapidly washed two times with 1% (v/v) acetic acid. Protein bound dye was then solubilised with the addition of 100 μL of 10 mM unbuffered Tris, and incubated for 15 min at 25° C. Plates were then read at 564 nm on a VERSA max tunable microplate reader (Molecular Devices, Sunnyvale, Calif.).
(§4) For comparison their results are also shown for MM96L and NFF cell lines.

[2] = system: DU145 prostate cancer cells; experiment: Cell survival assay (SRB); settings: for IC50: DU145 (prostate), read-out: Cytoselectivities (nM) DU145; for Selectivity Index DU145: Table 13, S enantiomer, IC50(NFF)/IC50(cancer cell line)
Protocol: as §2, §3, §4

JAM ovarian cancer cells = experiment: Cell survival assay (SRB); settings: for IC50: read-out: Cytoselectivities (nM) JAM; for Selectivity Index JAM: Table 13, S enantiomer, IC50(NFF)/IC50(cancer cell line)
Protocol: as §2, §3, §4

[3] = system: MCF-7 breast cancer cells; experiment: Cell survival assay (SRB); settings: for IC50: MCF-7 (breast), read-out: Cytoselectivities (nM) MCF-7; for Selectivity Index MCF-7: Table 13, S enantiomer, IC50(NFF)/IC50(cancer cell line)
Protocol: as §2, §3, §4

SkMel28 melanoma cells = experiment: Cell survival assay (SRB); settings: for IC50: SK-MEL-28 (melanoma), read-out: Cytoselectivities (nM) SK-MEL-28; for Selectivity Index SK-MEL-28: Table 13, S enantiomer, IC50(NFF)/IC50(cancer cell line)
Protocol: as §2, §3, §4

A549 cells = experiment: Cell survival assay (SRB); settings: for IC50: A549 (lung), read-out: Cytoselectivities (nM) A549; for Selectivity Index A549: Table 13, S enantiomer, IC50(NFF)/IC50(cancer cell line)
Protocol: as §2, §3

H520 cells = experiment: Cell survival assay (SRB); settings: for IC50: read-out: Cytoselectivities (nM) H520; for Selectivity Index H520: Table 13, S enantiomer, IC50(NFF)/IC50(cancer cell line)
Protocol: as §2, §3

HOP62 cells = experiment: Cell survival assay (SRB); settings: for IC50: HOP62 (lung), read-out: Cytoselectivities (nM) HOP62; for Selectivity Index HOP62: Table 13, S enantiomer, IC50(NFF)/IC50(cancer cell line)
Protocol: as §2, §3

HT29 cells = experiment: Cell survival assay (SRB); settings: for IC50: HT29 (colon), read-out: Cytoselectivities (nM) HT29; for Selectivity Index HT29: Table 13, S enantiomer, IC50(NFF)/IC50(cancer cell line)
Protocol: as §2, §3

PC-3 cells = experiment: Cell survival assay (SRB); settings: for IC50: PC-3, read-out: Cytoselectivities (nM) PC-3; for Selectivity Index PC-3: Table 13, S enantiomer, IC50(NFF)/IC50(cancer cell line)
Protocol: as §2, §3

SK-MEL-5 cells = experiment: Cell survival assay (SRB); settings: for IC50: SK-MEL-5, read-out: Cytoselectivities (nM) SK-MEL-5; for Selectivity Index SK-MEL-5: Table 13, S enantiomer, IC50(NFF)/IC50(cancer cell line)
Protocol: as §2, §3

T-47D cells = experiment: Cell survival assay (SRB); settings: for IC50: read-out: Cytoselectivities (nM) T-47D; for Selectivity Index T-47D: Table 13, S enantiomer, IC50(NFF)/IC50(cancer cell line)
Protocol: as §2, §3

[4] = system: NFF, neonatal foreskin fibroblasts; experiment: Cell survival assay (clonogenic survival, SRB), normal cells; settings: Homo sapiens, Fibroblast, NFF normal fibroblasts; 24 h with compound, further 72 h growth, SRB; read-out: IC50 (uM) NFF
In short: as §1

Col208 cells = experiment: Cell survival assay (SRB); settings: for IC50: Homo sapiens, Col208 (colon), read-out: Cytoselectivities (nM) Col208; for Selectivity Index Col208: Table 13, S enantiomer, IC50(NFF)/IC50(cancer cell line)
Protocol: as §2, §3

[5] = Table 12, read-out: Cytoselectivities (nM) MM96L
[6] = Homo sapiens, MM96L melanoma, 24 h with compound, further 72 h growth, SRB, read-out: IC50 (uM) MM96L
[7] = Homo sapiens, Table 12, read-out: Cytoselectivities (nM) MM96L
[8] = Homo sapiens, most preferred compounds, exemplary examples, read-out: potency of IC50 against the MM96 melanoma cells

CN(C)c1ccc(C(=O)N[C@H](CCCCCC(=O)NO)C(=O)Nc2cccc3cccnc23)cc1 [126 R]
IC50 (MM96L melanoma cells; [5]): 38 nM
IC50 ([1]; CI80-13S): 43 nM
IC50 [2]: 52 nM
IC50 (JAM ovarian cancer cells; JAM): 251 nM
IC50 [3]: 40 nM
IC50 (SkMel28 melanoma cells): 57 nM
IC50 (A549 cells): 191 nM
IC50 (H520 cells; H520): 188 nM
IC50 (HOP62 cells): 147 nM
IC50 (HT29 cells): 199 nM
IC50 (PC-3 cells): 387 nM
IC50 (SK-MEL-5 cells): 44 nM
IC50 (T-47D cells; T-47D): 63 nM

O=C(CCCCC[C@@H](NC(=O)c1cc2ccccc2[nH]1)C(=O)Nc1cccc2cccnc12)NO [132 R]
IC50 (MM96L melanoma cells; [5]): 18 nM
IC50 ([1]; CI80-13S): 27 nM
IC50 [2]: 33 nM
IC50 (JAM ovarian cancer cells; JAM): 211 nM
IC50 [3]: 42 nM
IC50 (SkMel28 melanoma cells): 43 nM
IC50 (A549 cells): 121 nM
IC50 (H520 cells; H520): 180 nM
IC50 (HOP62 cells): 63 nM
IC50 (HT29 cells): 238 nM
IC50 (PC-3 cells): 148 nM
IC50 (SK-MEL-5 cells): 23 nM
IC50 (T-47D cells; T-47D): 42 nM

O=C(/C=C/c1ccccc1)N[C@H](CCCCCC(=O)NO)C(=O)Nc1cccc2cccnc12 [146 R]
IC50 (MM96L melanoma cells; [5]): 45 nM
IC50 ([1]; CI80-13S): 91 nM
IC50 [2]: 63 nM
IC50 (JAM ovarian cancer cells; JAM): 163 nM
IC50 [3]: 51 nM
IC50 (SkMel28 melanoma cells): 87 nM
IC50 (A549 cells): 196 nM
IC50 (H520 cells; H520): 152 nM
IC50 (HOP62 cells): 133 nM
IC50 (HT29 cells): 272 nM
IC50 (PC-3 cells): 543 nM
IC50 (SK-MEL-5 cells): 66 nM
IC50 (T-47D cells; T-47D): 99 nM

O=C(CCCCC[C@@H](NC(=O)OCc1ccccc1)C(=O)Nc1cccc2cccnc12)NO [148 R]
IC50 (MM96L melanoma cells; [5]): 22 nM
IC50 ([1]; CI80-13S): 29 nM
IC50 [2]: 39 nM
IC50 (JAM ovarian cancer cells; JAM): 65 nM
IC50 [3]: 29 nM
IC50 (SkMel28 melanoma cells): 43 nM
IC50 (A549 cells): 104 nM
IC50 (H520 cells; H520): 46 nM
IC50 (HOP62 cells): 65 nM
IC50 (HT29 cells): 139 nM
IC50 (PC-3 cells): 269 nM
IC50 (SK-MEL-5 cells): 20 nM
IC50 (T-47D cells; T-47D): 51 nM

O=C(CCCCC[C@@H](NC(=O)c1ccc(Br)cc1)C(=O)Nc1ccc(-c2ccccc2)cc1)NO [161 R]
IC50 (MM96L melanoma cells; [5]): 18600 nM
IC50 ([1]; CI80-13S): 18600 nM
IC50 [2]: 18600 nM
IC50 (JAM ovarian cancer cells; JAM): 18600 nM
IC50 [3]: 13000 nM
IC50 (SkMel28 melanoma cells): 18600 nM
IC50 (A549 cells): 18600 nM
IC50 (H520 cells; H520): 18600 nM
IC50 (HOP62 cells): 18600 nM
IC50 (HT29 cells): 18600 nM
IC50 (PC-3 cells): 18600 nM
IC50 (SK-MEL-5 cells): 18600 nM
IC50 (T-47D cells; T-47D): 18600 nM

CN(C)c1ccc(C(=O)N[C@@H](CCCCCC(=O)NO)C(=O)Nc2cccc3cccnc23)cc1 [Example 126]
IC50 [4]: 0.57 ± 0.07 µM
IC50 (MM96L melanoma cells; [6]): 20 ± 10 nM
IC50 (MM96L melanoma cells; [7]): 51 nM
IC50 (MM96L melanoma cells; [8]): ≤ 500 nM
SI (Selectivity Index = IC50 (NFF)/IC50 (MM96L)) (MM96L melanoma cells): 28
Selectivity Index MM96L (MM96L melanoma cells): 11
IC50 ([1]; Homo sapiens): 65 nM
Selectivity Index CI80-13S [1]: 9
IC50 ([2]; Homo sapiens, DU-145): 61 nM
Selectivity Index DU145 [2]: 9
IC50 (JAM ovarian cancer cells; Homo sapiens): 85 nM
Selectivity Index JAM (JAM ovarian cancer cells): 7
IC50 ([3]; Homo sapiens, MCF7): 35 nM
Selectivity Index MCF-7 [3]: 16
IC50 (SkMel28 melanoma cells; Homo sapiens): 73 nM
Selectivity Index SK-MEL-28 (SkMel28 melanoma cells): 8
IC50 (A549 cells; Homo sapiens): 148 nM
Selectivity Index A549 (A549 cells): 4
IC50 (Col208 cells): 223 nM
Selectivity Index Col208 (Col208 cells): 1.5
IC50 (H520 cells; Homo sapiens, NCI-H520): 63 nM
Selectivity Index H520 (H520 cells): 9
IC50 (HOP62 cells; Homo sapiens, HOP-62): 137 nM
Selectivity Index HOP62 (HOP62 cells): 4
IC50 (HT29 cells; Homo sapiens, HT-29): 178 nM
Selectivity Index HT29 (HT29 cells): 3
IC50 (PC-3 cells; Homo sapiens): 220 nM
Selectivity Index PC-3 (PC-3 cells): 3
IC50 (SK-MEL-5 cells; Homo sapiens): 32 nM
Selectivity Index SK-MEL-5 (SK-MEL-5 cells): 18
IC50 (T-47D cells; Homo sapiens, T47D): 45 nM
Selectivity Index T-47D (T-47D cells): 13

O=C(CCCCC[C@H](NC(=O)c1cc2ccccc2[nH]1)C(=O)Nc1cccc2cccnc12)NO [Example 132]
IC50 [4]: 0.337 µM
IC50 (MM96L melanoma cells; [6]): 21 nM
IC50 (MM96L melanoma cells; [7]): 18 nM
IC50 (MM96L melanoma cells; [8]): ≤ 500 nM
SI (Selectivity Index = IC50 (NFF)/IC50 (MM96L)) (MM96L melanoma cells): 16
Selectivity Index MM96L (MM96L melanoma cells): 19
IC50 ([1]; Homo sapiens): 20 nM
Selectivity Index CI80-13S [1]: 17
IC50 ([2]; Homo sapiens, DU-145): 22 nM
Selectivity Index DU145 [2]: 15
IC50 (JAM ovarian cancer cells; Homo sapiens): 48 nM
Selectivity Index JAM (JAM ovarian cancer cells): 7
IC50 ([3]; Homo sapiens, MCF7): 19 nM
Selectivity Index MCF-7 [3]: 18
IC50 (SkMel28 melanoma cells; Homo sapiens): 33 nM
Selectivity Index SK-MEL-28 (SkMel28 melanoma cells): 10
IC50 (A549 cells; Homo sapiens): 69 nM
Selectivity Index A549 (A549 cells): 5
IC50 (Col208 cells): 102 nM
Selectivity Index Col208 (Col208 cells): 3
IC50 (H520 cells; Homo sapiens, NCI-H520): 26 nM
Selectivity Index H520 (H520 cells): 13
IC50 (HOP62 cells; Homo sapiens, HOP-62): 63 nM
Selectivity Index HOP62 (HOP62 cells): 5
IC50 (HT29 cells; Homo sapiens, HT-29): 79 nM
Selectivity Index HT29 (HT29 cells): 4
IC50 (PC-3 cells; Homo sapiens): 148 nM
Selectivity Index PC-3 (PC-3 cells): 2
IC50 (SK-MEL-5 cells; Homo sapiens): 18 nM
Selectivity Index SK-MEL-5 (SK-MEL-5 cells): 18
IC50 (T-47D cells; Homo sapiens, T47D): 19 nM
Selectivity Index T-47D (T-47D cells): 18
